In ChEMBL document CHEMBL4138197, “Design, synthesis and pharmacological evaluation of N-(5-chloro-2,4-dihydroxybenzoyl)-(R)-N-arylmethyl-1,2,3,4-tetrahydro-3-isoquinolinecarboxamides as potent Hsp90 inhibitors” (Eur J Med Chem, 2018) one finds IC50, Activity and inhibition data, which are given here for one compound.

Activity calls are given as the source filed them. The rule behind the calls is not given here.

For assay [1], the system named is A549. Kind of assay: Antiproliferative activity against human A549 cells after 72 hrs by SRB assay. In kind it is functional, cell-based. Conditions: A549, 72 h. Background: In SRB staining, fixed cells bind dye roughly in proportion to their protein.
In assay [2] the test system is MDA-MB-231. The experiment in a line: Antiproliferative activity against human MDA-MB-231 cells after 72 hrs by SRB assay. In kind it is functional, cell-based. The settings on record: MDA-MB-231, 72 h.
The target of assay [3] is Heat shock protein HSP 90-alpha (Homo sapiens) (UniProt P07900). Kind of assay: Binding affinity to HSP90alpha in HEK293T cells assessed as induction of thermal stabilisation of HSP90alpha at 10 uM pre-incubated for 3 hrs followed by heating at 37 to 63 degC for 3 mins then subsequent cooling for 3 mins by Western blot-based CESTA relative to beta actin. In kind it is cell-based. (In western blotting, separated proteins are transferred to a membrane and probed.)

Assay [4] shares this target. Kind of assay: Inhibition of HSP90alpha in human MDA-MB-453 cells assessed as down-regulation of HER2 levels by Western blot analysis. In kind it is cell-based.
Assay [5] has the same target. The experiment in a line: Inhibition of HSP90alpha in human MDA-MB-453 cells assessed as down-regulation of EGFR levels by Western blot analysis. The class given is cell-based.
Assay [6] shares this target. Kind of assay: Inhibition of HSP90alpha in human MDA-MB-453 cells assessed as down-regulation of CHK1 levels by Western blot analysis. In kind it is cell-based.
Assay [7] relates to MDA-MB-453. Kind of assay: Cell cycle arrest in human MDA-MB-453 cells assessed as increase in accumulation at G0/G1 phase at 0.25 to 1 uM after 12 hrs by propidium iodide-staining based flow cytometry. In kind it is functional. For orientation: Flow cytometry measures light scatter and fluorescence of single cells or particles in a stream.
In assay [8] the test system is NCI-H1299. Kind of assay: Antiproliferative activity against human NCI-H1299 cells by SRB assay. The class given is functional, cell-based.
Assay [9] relates to MDA-MB-453. The experiment in a line: Induction of apoptosis in human MDA-MB-453 cells assessed as necrotic cells at 0.25 uM after 48 hrs by Annexin V-FITC/propidium iodide-staining based flow cytometry (reference value: 0.01%). In kind it is functional.
Assay [10] has as its system MDA-MB-453. The experiment in a line: Induction of apoptosis in human MDA-MB-453 cells assessed as early apoptotic cells at 4 uM after 48 hrs by Annexin V-FITC/propidium iodide-staining based flow cytometry (reference value: 1.65%). The class given is functional.
Assay [11] has as its system MDA-MB-453. The experiment in a line: Induction of apoptosis in human MDA-MB-453 cells assessed as increase in cleaved caspase3 activity at 0.25 uM up to 48 hrs in presence of z-VAD-fmk by Western blot analysis. The class given is functional, cell-based.
In assay [12] the test system is MDA-MB-453. The experiment in a line: Induction of apoptosis in human MDA-MB-453 cells assessed as increase in cleaved PARP activity at 0.25 uM up to 48 hrs in presence of z-VAD-fmk by Western blot analysis. The class given is functional, cell-based.
The test system of assay [13] is MDA-MB-453. The experiment in a line: Induction of apoptosis in human MDA-MB-453 cells assessed downregulation of bcl-xl expression at 0.25 uM at 48 hrs by Western blot analysis. In kind it is functional, cell-based.
Assay [14] deals with T1, Heat shock protein HSP90 (Homo sapiens) (UniProt P07900+P08238). The experiment in a line: Inhibition of HSP90 in human MDA-MB-453 cells assessed as downmodulation of IKKalpha expression at 0.25 uM up to 48 hrs by Western blot analysis. The class given is cell-based.
The target of assay [15] is T1, Heat shock protein HSP90 (Homo sapiens). The experiment in a line: Inhibition of HSP90 in human MDA-MB-453 cells assessed as downmodulation of IKKbeta expression at 0.25 uM up to 48 hrs by Western blot analysis. The class given is cell-based.
The target is the same in assay [16]. The experiment in a line: Inhibition of HSP90 in human MDA-MB-453 cells assessed as downmodulation of IKKgamma expression at 0.25 uM up to 48 hrs by Western blot analysis. The class given is cell-based.
For assay [17], the target named is T2, MAP kinase p38 (Homo sapiens) (UniProt O15264+Q15759+Q16539+P53778). The experiment in a line: Induction of p38 phosphorylation in human MDA-MB-453 cells at 0.25 uM after 48 hrs by Western blot analysis. The class given is cell-based.
Assay [18] has as its target T2, MAP kinase p38 (Homo sapiens). Kind of assay: Induction of p38 phosphorylation in human MDA-MB-453 cells at 0.25 uM after 48 hrs in presence of […] by Western blot analysis. The class given is cell-based.
Assay [19] has as its target T3, Inhibitor of nuclear factor kappa-B kinase subunit alpha (Homo sapiens) (UniProt O15111).
T3 sequence (whole entry): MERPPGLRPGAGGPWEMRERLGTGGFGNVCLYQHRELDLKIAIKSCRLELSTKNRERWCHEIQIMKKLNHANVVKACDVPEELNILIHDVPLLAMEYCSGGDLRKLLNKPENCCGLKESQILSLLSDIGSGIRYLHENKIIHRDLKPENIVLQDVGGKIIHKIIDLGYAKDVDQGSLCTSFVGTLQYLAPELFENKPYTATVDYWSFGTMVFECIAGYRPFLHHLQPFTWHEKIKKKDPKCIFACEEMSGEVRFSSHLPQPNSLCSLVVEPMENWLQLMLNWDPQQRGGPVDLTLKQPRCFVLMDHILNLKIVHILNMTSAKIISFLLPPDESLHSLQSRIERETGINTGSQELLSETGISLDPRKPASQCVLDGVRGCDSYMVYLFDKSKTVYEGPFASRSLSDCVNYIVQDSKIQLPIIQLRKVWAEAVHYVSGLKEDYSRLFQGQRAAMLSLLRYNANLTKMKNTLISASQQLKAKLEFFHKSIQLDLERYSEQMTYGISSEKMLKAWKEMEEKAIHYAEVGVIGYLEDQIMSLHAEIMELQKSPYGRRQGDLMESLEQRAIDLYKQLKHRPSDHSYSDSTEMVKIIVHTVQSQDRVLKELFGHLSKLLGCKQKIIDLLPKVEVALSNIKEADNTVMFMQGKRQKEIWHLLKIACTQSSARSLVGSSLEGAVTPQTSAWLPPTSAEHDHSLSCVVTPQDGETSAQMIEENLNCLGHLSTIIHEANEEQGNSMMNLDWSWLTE
The experiment in a line: Induction of IKKalpha association to hsp27 in human MDA-MB-453 cells at 0.25 uM after 6 hrs by immunoprecipitation and Western analysis. In kind it is cell-based.

For orientation: IC50 means the concentration that gives 50% inhibition. A low value points to greater potency. In the case of `O=C(NCc1ccncc1)[C@H]1Cc2ccccc2CN1C(=O)c1cc(Cl)c(O)cc1O`, the IC50 in assay [1] came out at 420 nM; in assay [2], 300 nM. The result in [3], in [7], in assay [8], in assay [13], in assay [17] and in [19] was Active. For the same compound, the inhibition entry in assay [4], in [5] and in [6] was “Dose-dependent effect” each time. Further, the Activity in assay [9] worked out at 0.02%; in [10], 23.49%. In addition, the outcome in assay [11], in assay [12] and in assay [18] was inactive. For the same compound, the inhibition result in [14], in [15] and in assay [16] was “Active” throughout.
